PubChem BioAssay (NCI)
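Cells were grown in 96-well plates and exposed to each compound for 48 hours at five concentrations; endpoints were interpolated linearly between bracketing concentrations, or set to the highest concentration if not reached. TGI denotes the concentration required for complete inhibition of growth.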

What was measured:
Assay in all cases: inhibition of tumour cell growth, NCI panel, 48 h
KM12 colon = system: KM12 colon
SK-MEL-5 melanoma = system: SK-MEL-5 melanoma
HOP-92 NSCLC = system: HOP-92 NSCLC
LOX IMVI melanoma = system: LOX IMVI melanoma
U251 CNS = system: U251 CNS
CAKI-1 renal = system: CAKI-1 renal
TK-10 renal = system: TK-10 renal
MCF7 breast = system: MCF7 breast
UACC-62 melanoma = system: UACC-62 melanoma
SK-OV-3 ovarian = system: SK-OV-3 ovarian
MALME-3M melanoma = system: MALME-3M melanoma
SK-MEL-28 melanoma = system: SK-MEL-28 melanoma

Row | SMILES | TGI (KM12 colon) [µM] | TGI (SK-MEL-5 melanoma) [µM] | TGI (HOP-92 NSCLC) [µM] | TGI (LOX IMVI melanoma) [µM] | TGI (U251 CNS) [µM] | TGI (CAKI-1 renal) [µM] | TGI (TK-10 renal) [µM] | TGI (MCF7 breast) [µM] | TGI (UACC-62 melanoma) [µM] | TGI (SK-OV-3 ovarian) [µM] | TGI (MALME-3M melanoma) [µM] | TGI (SK-MEL-28 melanoma) [µM]
1 | CC1C2(C)OC(=N)C(C#N)(C(c3ccco3)O2)C1(C#N)C#N (stereo not drawn) | > 100 | 28.1 | 47.3 | 40.5 | 51.5 | 27.4 | > 100 | 51.4 | 36.8 | > 100 | 88.7 | 46.2
2 | COc1ccc(-c2oc3cc(OC)c(OC)c(OC)c3c(=O)c2OC)cc1OC | > 100 | > 100 | > 100 | > 100 | > 100 | > 100 | > 100 | > 100 | > 100 | > 100 | > 100 | > 100
3 | O=C(O)CSc1nnc(CCCCCCCCc2nnc(SCC(=O)O)o2)o1 | > 100 | > 100 | > 100 | > 100 | > 100 | > 100 | > 100 | > 100 | > 100 | > 100 | > 100 | > 100
4 | O=C1C=CC[C@H](/C=C/C[C@@H](O)C[C@H](O)/C=C/c2ccccc2)O1 | 24.7 | 27.4 | 13.7 | 13.3 | 25.7 | 19.9 | 24 | 24.8 | 29.4 | 28.3 | 28.6 | 30.8
